Test results: ChEMBL document CHEMBL3112450, “Synthesis and in vitro antitumor evaluation of primary amine substituted quinazoline linked benzimidazole” (Bioorg Med Chem Lett, 2014)

What was measured:
Format in all cases: functional
[1] = tested on: SF-268; assay: Cytotoxicity against human SF268 cells assessed as cell growth at 10^-5 M after 48 hrs by SRB assay; details: SF-268, 48 h, read-out: Activity
[2] = tested on: NCI-H226; assay: Cytotoxicity against human NCI-H226 cells assessed as cell growth at 10^-5 M after 48 hrs by SRB assay; details: NCI-H226, 48 h, read-out: Activity
[3] = tested on: NCI-H23; assay: Cytotoxicity against human NCI-H23 cells assessed as cell growth at 10^-5 M after 48 hrs by SRB assay; details: NCI-H23, 48 h, read-out: Activity
[4] = tested on: BT-549; assay: Cytotoxicity against human BT549 cells assessed as cell growth at 10^-5 M after 48 hrs by SRB assay; details: BT-549, 48 h, read-out: Activity
[5] = tested on: ACHN; assay: Cytotoxicity against human ACHN cells assessed as cell growth at 10^-5 M after 48 hrs by SRB assay; details: read-out: Activity
[6] = tested on: SN12C; assay: Cytotoxicity against human SN12C cells assessed as cell growth at 10^-5 M after 48 hrs by SRB assay; details: read-out: Activity
[7] = tested on: SK-MEL-2; assay: Cytotoxicity against human SK-MEL-2 cells assessed as cell growth at 10^-5 M after 48 hrs by SRB assay; details: SK-MEL-2, 48 h, read-out: Activity
[8] = Cytotoxicity against human NCI-ADR-RES cells assessed as cell growth at 10^-5 M after 48 hrs by SRB assay; details: read-out: Activity
[9] = tested on: SK-MEL-28; assay: Cytotoxicity against human SK-MEL-28 cells assessed as cell growth at 10^-5 M after 48 hrs by SRB assay; details: SK-MEL-28, 48 h, read-out: Activity
[10] = tested on: CCRF-CEM; assay: Cytotoxicity against human CCRF-CEM cells assessed as cell growth at 10^-5 M after 48 hrs by SRB assay; details: read-out: Activity
[11] = tested on: MDA-MB-468; assay: Cytotoxicity against human MDA-MB-468 cells assessed as cell growth at 10^-5 M after 48 hrs by SRB assay; details: MDA-MB-468, 48 h, read-out: Activity
[12] = tested on: RPMI-8226; assay: Cytotoxicity against human RPMI8226 cells assessed as cell growth at 10^-5 M after 48 hrs by SRB assay; details: RPMI-8226, 48 h, read-out: Activity
[13] = tested on: COLO 205; assay: Cytotoxicity against human COLO205 cells assessed as cell growth at 10^-5 M after 48 hrs by SRB assay; details: COLO 205, 48 h, read-out: Activity
[14] = tested on: PC-3; assay: Cytotoxicity against human PC3 cells assessed as cell growth at 10^-5 M after 48 hrs by SRB assay; details: PC-3, 48 h, read-out: Activity
[15] = tested on: SF-539; assay: Cytotoxicity against human SF539 cells assessed as cell growth at 10^-5 M after 48 hrs by SRB assay; details: SF-539, 48 h, read-out: Activity
[16] = tested on: OVCAR-8; assay: Cytotoxicity against human OVCAR8 cells assessed as cell growth at 10^-5 M after 48 hrs by SRB assay; details: OVCAR-8, 48 h, read-out: Activity
[17] = Cytotoxicity against human UACC257 cells assessed as cell growth at 10^-5 M after 48 hrs by SRB assay; details: UACC-257, 48 h, read-out: Activity
[18] = tested on: HOP-92; assay: Cytotoxicity against human HOP92 cells assessed as cell growth at 10^-5 M after 48 hrs by SRB assay; details: HOP-92, 48 h, read-out: Activity
[19] = tested on: HCT-15; assay: Cytotoxicity against human HCT15 cells assessed as cell growth at 10^-5 M after 48 hrs by SRB assay; details: HCT-15, 48 h, read-out: Activity
[20] = tested on: TK-10; assay: Cytotoxicity against human TK10 cells assessed as cell growth at 10^-5 M after 48 hrs by SRB assay; details: TK-10, 48 h, read-out: Activity
[21] = tested on: U-251; assay: Cytotoxicity against human U251 cells assessed as cell growth at 10^-5 M after 48 hrs by SRB assay; details: U-251, 48 h, read-out: Activity
[22] = tested on: LOX IMVI; assay: Cytotoxicity against human LOXIMVI cells assessed as cell growth at 10^-5 M after 48 hrs by SRB assay; details: read-out: Activity
[23] = tested on: NCI-H322M; assay: Cytotoxicity against human NCI-H322M cells assessed as cell growth at 10^-5 M after 48 hrs by SRB assay; details: read-out: Activity
[24] = tested on: SK-OV-3; assay: Cytotoxicity against human SKOV3 cells assessed as cell growth at 10^-5 M after 48 hrs by SRB assay; details: SK-OV-3, 48 h, read-out: Activity
[25] = tested on: IGROV-1; assay: Cytotoxicity against human IGROV1 cells assessed as cell growth at 10^-5 M after 48 hrs by SRB assay; details: IGROV-1, 48 h, read-out: Activity
[26] = tested on: HCT-116; assay: Cytotoxicity against human HCT116 cells assessed as cell growth at 10^-5 M after 48 hrs by SRB assay; details: HCT-116, 48 h, read-out: Activity
[27] = tested on: MDA-MB-231; assay: Cytotoxicity against human MDA-MB-231 cells assessed as cell growth at 10^-5 M after 48 hrs by SRB assay; details: MDA-MB-231, 48 h, read-out: Activity
[28] = tested on: UACC-62; assay: Cytotoxicity against human UACC62 cells assessed as cell growth at 10^-5 M after 48 hrs by SRB assay; details: UACC-62, 48 h, read-out: Activity
[29] = tested on: MCF7; assay: Cytotoxicity against human MCF7 cells assessed as cell growth at 10^-5 M after 48 hrs by SRB assay; details: MCF7, 48 h, read-out: Activity
[30] = tested on: RXF 393; assay: Cytotoxicity against human RXF393 cells assessed as cell growth at 10^-5 M after 48 hrs by SRB assay; details: RXF 393, 48 h, read-out: Activity
[31] = tested on: SF-295; assay: Cytotoxicity against human SF295 cells assessed as cell growth at 10^-5 M after 48 hrs by SRB assay; details: SF-295, 48 h, read-out: Activity
[32] = tested on: SNB-75; assay: Cytotoxicity against human SNB75 cells assessed as cell growth at 10^-5 M after 48 hrs by SRB assay; details: SNB-75, 48 h, read-out: Activity
[33] = tested on: HCC 2998; assay: Cytotoxicity against human HCC2998 cells assessed as cell growth at 10^-5 M after 48 hrs by SRB assay; details: HCC 2998, 48 h, read-out: Activity
[34] = tested on: A498; assay: Cytotoxicity against human A498 cells assessed as cell growth at 10^-5 M after 48 hrs by SRB assay; details: A498, 48 h, read-out: Activity
[35] = tested on: OVCAR-3; assay: Cytotoxicity against human OVCAR3 cells assessed as cell growth at 10^-5 M after 48 hrs by SRB assay; details: OVCAR-3, 48 h, read-out: Activity
[36] = tested on: SK-MEL-5; assay: Cytotoxicity against human SK-MEL-5 cells assessed as cell growth at 10^-5 M after 48 hrs by SRB assay; details: SK-MEL-5, 48 h, read-out: Activity
[37] = tested on: SR; assay: Cytotoxicity against human SR cells assessed as cell growth at 10^-5 M after 48 hrs by SRB assay; details: read-out: Activity

Compound	growth at 10 µM [1] [%]	growth at 10 µM [2] [%]	growth at 10 µM [3] [%]	growth at 10 µM [4] [%]	growth at 10 µM [5] [%]	growth at 10 µM [6] [%]	growth at 10 µM [7] [%]	growth at 10 µM [8] [%]	growth at 10 µM [9] [%]	growth at 10 µM [10] [%]	growth at 10 µM [11] [%]	growth at 10 µM [12] [%]	growth at 10 µM [13] [%]	growth at 10 µM [14] [%]	growth at 10 µM [15] [%]	growth at 10 µM [16] [%]	growth at 10 µM [17] [%]	growth at 10 µM [18] [%]	growth at 10 µM [19] [%]	growth at 10 µM [20] [%]	other results
C=CCn1c(C)nc2cc(Nc3nc(NCCO)nc4ccccc34)ccc21	90.9	78.8	81.9	92.5	90.5	84.7	102	97.7	101	81.9	53.5	63.4	41.9	69.2	94.8	73.6	97.7	57.9	105	118	growth at 10 µM [21]: 90.9%; growth at 10 µM [22]: 85.6%; growth at 10 µM [23]: 91.3%; growth at 10 µM [24]: 103%; growth at 10 µM [25]: 95.3%; growth at 10 µM [26]: 64%; growth at 10 µM [27]: 72.9%; growth at 10 µM [28]: 85.5%; growth at 10 µM [29]: 72.2%; growth at 10 µM [30]: 97.5%; growth at 10 µM [31]: 90.6%; growth at 10 µM [32]: 76.4%; growth at 10 µM [33]: 89%; growth at 10 µM [34]: 55.4%; growth at 10 µM [35]: 94.8%; growth at 10 µM [36]: 75.4%; growth at 10 µM [37]: 68.8%
C=CCn1c(C)nc2ccc(Nc3nc(Nc4ccc5nc(C)n(CC=C)c5c4)c4ccccc4n3)cc21	-77	-87	-89	-86	-99	-100	-88	-25	-96	-20.8	-99	-43.3	-100	-82	-96	-76	-91	-80	-74	-97	growth at 10 µM [21]: -100%; growth at 10 µM [22]: -91%; growth at 10 µM [23]: -88%; growth at 10 µM [24]: -100%; growth at 10 µM [25]: -87%; growth at 10 µM [26]: -100%; growth at 10 µM [27]: -100%; growth at 10 µM [28]: -100%; growth at 10 µM [29]: -100%; growth at 10 µM [30]: -93%; growth at 10 µM [31]: -80%; growth at 10 µM [32]: -95.2%; growth at 10 µM [33]: -100%; growth at 10 µM [34]: -91%; growth at 10 µM [35]: -99%; growth at 10 µM [36]: -98%; growth at 10 µM [37]: -57.2%
C=CCn1c(C)nc2cc(Nc3nc(Nc4ccc5nc(C)n(CC=C)c5c4)c4ccccc4n3)ccc21	-99	-47.1	-69.2	-96	-100	-76	-84.1	-46	-88	-29	-85	-41	-100	-100	-100	-40.9	-79.8	-97	-78	-100	growth at 10 µM [21]: -90.7%; growth at 10 µM [22]: -94%; growth at 10 µM [23]: -100%; growth at 10 µM [24]: -95.7%; growth at 10 µM [25]: -93.8%; growth at 10 µM [26]: -96.5%; growth at 10 µM [27]: -89%; growth at 10 µM [28]: -94%; growth at 10 µM [29]: -89.3%; growth at 10 µM [30]: -97.4%; growth at 10 µM [31]: -100%; growth at 10 µM [32]: -96.7%; growth at 10 µM [33]: -98%; growth at 10 µM [34]: -100%; growth at 10 µM [35]: -100%; growth at 10 µM [36]: -95.2%; growth at 10 µM [37]: -44.2%
